Publication PMC8840619, “Conjugation of Palbociclib with MHI-148 Has an Increased Cytotoxic Effect for Breast Cancer Cells and an Altered Mechanism of Action” (Molecules, 2022)
Like-named read-outs stand apart in the source and are kept apart here.

Experiments:
MCF-7 [1] = system: MCF-7; set-up: method as in PMID 30370249; settings: read-out: IC50 proliferation; cited from earlier work
MDA-MB-231 [2] = system: MDA-MB-231; set-up: method as in PMID 30370249; settings: read-out: IC50 proliferation; cited from earlier work
51D1.3 [3] = experiment: WST-1 cell viability assay; assay type: cell-based, Chinese hamster; settings: for IC50: 3 days of treatment, mean ± SEM; for EC50: Supplementary Table S1
Method: (§1) As described previously, 3000 cells per well were seeded in 96-well plates and incubated in the presence of varying concentrations of drugs for three days. Cell proliferation was measured by thymidine uptake assay, cell growth by sulforhodamine B (SRB) colorimetric assay, and cell viability by WST-1 assay, as previously described.
(§2) For viability, […] activity was measured using a water-soluble tetrazolium salt (WST-1) (purchased from Roche, Basel, Switzerland) after drug treatment for 3 days. The stable tetrazolium salt WST-1 is cleaved to a soluble formazan by a complex cellular mechanism that occurs primarily at the cell surface. This bio-reduction is largely dependent on the glycolytic production of NAD(P)H in viable cells. Therefore, the amount of formazan dye formed directly correlates with the number of metabolically active cells in the culture.

51D1 [4] = experiment: WST-1 cell viability assay; assay type: cell-based, Chinese hamster; settings: for IC50: 3 days of treatment, mean ± SEM; for EC50: Supplementary Table S1
Method: as §1, §2

51D1.3 [5] = experiment: SRB cell growth assay; assay type: cell-based, Chinese hamster; settings: 3 days of treatment, mean ± SEM
Method: as §1
(§3) The SRB colorimetric assay, which is based on the measurement of cellular protein content, was used to measure cell density. After drug treatment for 3 days, cells were fixed with 10% (wt/vol) trichloroacetic acid and stained for 30 min, and the excess dye was removed by washing repeatedly with 1% (vol/vol) acetic acid. The protein-bound dye was dissolved in Tris base solution (10 mM) for optical density determination at 510 nm using a microplate reader. Optimal cell densities were previously determined to select initial cell densities that ensured that cells were in logarithmic phase for the experiments.

51D1 [6] = experiment: SRB cell growth assay; assay type: cell-based, Chinese hamster; settings: 3 days of treatment, mean ± SEM
Method: as §1, §3

MDA-MB-231 cells [7] = experiment: Flow cytometry cell cycle analysis (DNA content, PI); assay type: cell-based, human; settings: 500 nM for 24 h, untreated cells 48%
Method: As previously described, cells (1 × 10^6 cells) were grown in six-well plates and incubated with drugs for 24 h. Cells were harvested, washed with 1% FBS/phosphate-buffered saline (PBS), resuspended in 200 μL of PBS, fixed in 2 mL of ice-cold 100% ethanol, and stored overnight at −20 °C. The cells were washed and resuspended in 1 mL of 1% FBS/PBS, containing RNase (1 μg/mL) and propidium iodide (PI) (10 μg/mL), for 30 min at room temperature. DNA content was determined using […] by PI staining based on a total of 25,000 acquired events on a BD Biosciences Accuri C6 flow cytometer, and cell cycle distribution was analysed using FlowJo version 10.7.2.

MCF-7 [8] = experiment: SRB cell growth assay; assay type: cell-based, human; settings: for IC50: 3 days of treatment, mean ± SEM
Method: as §1, §3

MDA-MB-231 [9] = experiment: SRB cell growth assay; assay type: cell-based, human; settings: for IC50: 3 days of treatment, mean ± SEM
Method: as §1, §3

HEK293 [10] = experiment: SRB cell growth assay; assay type: cell-based, human; settings: 3 days of treatment, mean ± SEM
Method: as §1, §3

MDA-MB-231 [11] = settings: data from Finn et al.
MCF-7 [12] = experiment: [3H]-thymidine incorporation cell proliferation assay; assay type: cell-based, human; settings: 3 days of treatment, mean ± SEM
Method: as §1
(§4) Briefly, for the proliferation assay, [^3H]-thymidine (0.04 μCi) was added to each well and plates were incubated for 5 h, after which the cells were harvested onto glass–fiber filters using an automated TomTec harvester. Filters were incubated with Betaplate Scint and [^3H]-thymidine incorporation was measured in a Trilux/Betaplate counter. Cell proliferation was determined by the percentage incorporation of [^3H]-thymidine.

MDA-MB-231 [13] = experiment: as above; assay type: cell-based, human; settings: for IC50: MDA-MB-231, 3 days of treatment, mean ± SEM
Method: as §1, §4

MDA-MB-231 [14] = system: MDA-MB-231; set-up: method as in earlier work; settings: different proliferation assay, ref 21 (Finn et al.), read-out: IC50 proliferation, previously reported; cited from earlier work
MDA-MB-231 cells [15] = experiment: Propidium iodide staining of dying cells; assay type: cell-based, human; settings: 1 µM for 24 h
Method: Cells (1 × 10^6) were incubated with drugs for 24 h. Cells were next incubated with 50 μg/mL PI in growth media for 15 min at room temperature and protected from light. Cell death was monitored by fluorescence staining of DNA by PI and analysed by fluorescent microscopy using a Floid imaging station (460× magnification).

MCF-7 [16] = system: MCF-7; set-up: method as in earlier work; settings: different proliferation assay, ref 21 (Finn et al.), read-out: IC50 proliferation, previously reported; cited from earlier work
MCF-7 [17] = experiment: WST-1 cell viability assay; assay type: cell-based, human; settings: for IC50: 3 days of treatment, mean ± SEM; for EC50: MCF7, Supplementary Table S1
Method: as §1, §2

MDA-MB-231 [18] = experiment: WST-1 cell viability assay; assay type: cell-based, human; settings: for IC50: 3 days of treatment, mean ± SEM; for EC50: Supplementary Table S1
Method: as §1, §2

HEK293 [19] = experiment: WST-1 cell viability assay; assay type: cell-based, human; settings: for IC50: 3 days of treatment, mean ± SEM; for EC50: Supplementary Table S1
Method: as §1, §2

[20] = Behaviour in aqueous environments (solubility observation); assay type: physicochemical; settings: high concentration
51D1.3 [21] = experiment: [3H]-thymidine incorporation cell proliferation assay; assay type: cell-based, Chinese hamster; settings: 3 days of treatment, mean ± SEM
Method: as §1, §4

51D1 [22] = experiment: as above; assay type: cell-based, Chinese hamster; settings: 3 days of treatment, mean ± SEM
Method: as §1, §4

HEK293 [23] = experiment: as above; assay type: cell-based, human; settings: 3 days of treatment, mean ± SEM
Method: as §1, §4

[24] = Absorbance spectra in DMSO; assay type: physicochemical; settings: 25 °C
Method: The absorbance and fluorescence emission spectra of up to 7 three-fold serial dilutions of MHI-148 and MHI-palbociclib in DMSO, ranging from […], were acquired at 25 °C.
• (a) Absorbance spectra of the test compound solutions (200 μL) plated in a 96-well polystyrene flat-bottom transparent microplate were acquired on a quad monochromator-equipped microplate reader Enspire 2300 (Perkin-Elmer; Singapore) from 650 nm to 900 nm in 1 nm increments. • (b) Fluorescence emission spectra of the compound solutions in a 2 mL semi-micro quartz cuvette were measured on a FP-8600 spectrofluorometer (JASCO; Japan) between 790 nm and 850 nm in 1 nm increments at the excitation wavelength of 780 nm. The fluorescence emission was measured at a high sensitivity of the instrument, with an excitation and emission bandwidth of 5 nm, a 50 ms response time, and a scan speed of 1000 nm per minute.

## CC(=O)O[C@H]1C(=O)[C@@]2(C)[C@H]([C@H](OC(=O)c3ccccc3)[C@]3(O)C[C@H](OC(=O)[C@H](O)[C@@H](NC(=O)c4ccccc4)c4ccccc4)C(C)=C1C3(C)C)[C@]1(OC(C)=O)CO[C@@H]1C[C@@H]2O [paclitaxel]
MCF-7 [1]
  IC50: 9.05 ± 0.04 nM
MDA-MB-231 [2]
  IC50: 5.8 ± 1.13 nM

## CC(=O)c1c(C)c2cnc(Nc3ccc(N4CCNCC4)cn3)nc2n(C2CCCC2)c1=O [Palbociclib]
51D1.3 [3]; Cricetulus griseus, 72 h
  IC50: > 2500 nM
51D1.3 [3]; Cricetulus griseus
  EC50: > 2500 nM
51D1 [4]; Cricetulus griseus, 72 h
  IC50: > 2500 nM
51D1 [4]; Cricetulus griseus
  EC50: > 2500 nM
51D1.3 [5]; Cricetulus griseus, 72 h
  IC50: > 2500 nM
51D1 [6]; Cricetulus griseus, 72 h
  IC50: > 2500 nM
MDA-MB-231 cells [7]
  G1 cell cycle arrest (proportion of cells in G1): 87%
MCF-7 [8]; Homo sapiens, MCF7, 72 h
  IC50: > 2500 nM
MDA-MB-231 [9]; Homo sapiens, 72 h
  IC50: > 2500 nM
HEK293 [10]; Homo sapiens, 72 h
  IC50: > 2500 nM
MDA-MB-231 [11]
  Fold difference of the IC50 of the two cell lines (MDA-MB-231 vs MCF-7): 2.9 fold
MCF-7 [12]; Homo sapiens, MCF7, 72 h
  IC50: 29.1 ± 8.6 nM
MDA-MB-231 [13]; Homo sapiens, 72 h
  IC50: 72.2 ± 2.8 nM
MDA-MB-231 [13]; thymidine incorporation, own data
  Fold difference of the IC50 of the two cell lines (MDA-MB-231 vs MCF-7): 2.5 fold
MDA-MB-231 [14]
  IC50: 432 ± 16.1 nM
MDA-MB-231 cells [15]
  PI staining of dying cells (cytotoxic effect): minimal PI staining
MCF-7 [16]
  IC50: 148 ± 25.7 nM
MCF-7 [17]; Homo sapiens, MCF7, 72 h
  IC50: > 2500 nM
MCF-7 [17]; Homo sapiens
  EC50: > 2500 nM
MDA-MB-231 [18]; Homo sapiens, 72 h
  IC50: > 2500 nM
MDA-MB-231 [18]; Homo sapiens
  EC50: > 2500 nM
HEK293 [19]; Homo sapiens, 72 h
  IC50: > 2500 nM
HEK293 [19]; Homo sapiens
  EC50: > 2500 nM

## CC(=O)c1c(C)c2cnc(Nc3ccc(N4CCN(C(=O)CCCCCN5/C(=C/C=C6\CCCC(/C=C/C7=[N+](CCCCCC(=O)N8CCN(c9ccc(Nc%10ncc%11c(C)c(C(C)=O)c(=O)n(C%12CCCC%12)c%11n%10)nc9)CC8)c8ccccc8C7(C)C)=C6Cl)C(C)(C)c6ccccc65)CC4)cn3)nc2n(C2CCCC2)c1=O.[Br-] [MHI-palbociclib]
[20]
  Behaviour in aqueous environments: rapidly precipitates in aqueous environments
51D1.3 [21]
  IC50: 217 ± 8.7 nM
51D1 [22]
  IC50: 205 ± 4.6 nM
51D1.3 [3]
  IC50: 401 ± 89 nM
  EC50: 471 nM
51D1 [4]
  IC50: 197 ± 15.7 nM
  EC50: 265 nM
51D1.3 [5]
  IC50: 164 ± 6.8 nM
51D1 [6]
  IC50: 187 ± 3.9 nM
MDA-MB-231 cells [7]
  G1 cell cycle arrest (proportion of cells in G1): 55%
MCF-7 [8]; 2.5 μM, 3 days, t-test p = 0.002
  Growth inhibitory effect compared with combination of unconjugated palbociclib and MHI-148: significantly greater
MCF-7 [8]
  IC50: 506 ± 93.6 nM
MDA-MB-231 [9]; 2.5 μM, 3 days, t-test p = 0.003
  Growth inhibitory effect compared with combination of unconjugated palbociclib and MHI-148: significantly greater
MDA-MB-231 [9]
  IC50: 683 ± 29.6 nM
HEK293 [10]
  IC50: 171 ± 7.9 nM
MCF-7 [12]
  IC50: 215.4 ± 0.8 nM
MDA-MB-231 [13]
  IC50: 170 ± 9.7 nM
HEK293 [23]
  IC50: 170 ± 4.1 nM
MDA-MB-231 cells [15]
  PI staining of dying cells (cytotoxic effect): increased PI staining and reduced cell number
MCF-7 [17]
  IC50: 845 ± 34.3 nM
MDA-MB-231 [18]
  IC50: 1020 ± 150 nM
  EC50: 872 nM
HEK293 [19]
  IC50: 418 ± 68.3 nM
  EC50: 544 nM
[24]
  Absorbance λmax: 800 nm

## CC1(C)C(/C=C/C2=C(Cl)C(=C/C=C3/N(CCCCCC(=O)O)c4ccccc4C3(C)C)/CCC2)=[N+](CCCCCC(=O)O)c2ccccc21.[Br-] [MHI-148, 1-(5-Carboxypentyl)-2-((E)-2-((E)-3-(2-((E)-1-(5-carboxypentyl)-3,3-dimethylindolin-2-ylidene)ethylidene)-2-chlorocyclohex-1-en-1-yl)vinyl)-3,3-dimethyl-3H-indol-1-ium bromide]
51D1.3 [21]; Cricetulus griseus, 72 h
  IC50: > 2500 nM
51D1 [22]; Cricetulus griseus, 72 h
  IC50: > 2500 nM
51D1.3 [3]; Cricetulus griseus, 72 h
  IC50: > 2500 nM
51D1.3 [3]; Cricetulus griseus
  EC50: > 2500 nM
51D1 [4]; Cricetulus griseus, 72 h
  IC50: > 2500 nM
51D1 [4]; Cricetulus griseus
  EC50: > 2500 nM
51D1.3 [5]; Cricetulus griseus, 72 h
  IC50: > 2500 nM
51D1 [6]; Cricetulus griseus, 72 h
  IC50: > 2500 nM
MCF-7 [8]; Homo sapiens, MCF7, 72 h
  IC50: > 2500 nM
MDA-MB-231 [9]; Homo sapiens, 72 h
  IC50: > 2500 nM
HEK293 [10]; Homo sapiens, 72 h
  IC50: > 2500 nM
MCF-7 [12]; Homo sapiens, MCF7, 72 h
  IC50: > 2500 nM
MDA-MB-231 [13]; Homo sapiens, 72 h
  IC50: > 2500 nM
HEK293 [23]; Homo sapiens, 72 h
  IC50: > 2500 nM
MCF-7 [17]; Homo sapiens, MCF7, 72 h
  IC50: > 2500 nM
MCF-7 [17]; Homo sapiens
  EC50: > 2500 nM
MDA-MB-231 [18]; Homo sapiens, 72 h
  IC50: > 2500 nM
MDA-MB-231 [18]; Homo sapiens
  EC50: > 2500 nM
HEK293 [19]; Homo sapiens, 72 h
  IC50: > 2500 nM
HEK293 [19]; Homo sapiens
  EC50: > 2500 nM
[24]
  Absorbance λmax: 797 nm
